In brackets after ≈: the same amount, converted by molar mass.
Tests used:
rat calcitonin receptor = molecular target: T1, rat calcitonin receptor (Rattus norvegicus, UniProt P32214); assay: Assay (VIII) binding to the rat calcitonin receptor; details: membranes; read-out: rCT-R binding IC50
T1 construct: expressed in transfected cells; host or cells: BHK tk'ts 13 (transient, FuGENE 6)
T1 sequence (P32214 25-479 isoform P32214-2 limits assumed): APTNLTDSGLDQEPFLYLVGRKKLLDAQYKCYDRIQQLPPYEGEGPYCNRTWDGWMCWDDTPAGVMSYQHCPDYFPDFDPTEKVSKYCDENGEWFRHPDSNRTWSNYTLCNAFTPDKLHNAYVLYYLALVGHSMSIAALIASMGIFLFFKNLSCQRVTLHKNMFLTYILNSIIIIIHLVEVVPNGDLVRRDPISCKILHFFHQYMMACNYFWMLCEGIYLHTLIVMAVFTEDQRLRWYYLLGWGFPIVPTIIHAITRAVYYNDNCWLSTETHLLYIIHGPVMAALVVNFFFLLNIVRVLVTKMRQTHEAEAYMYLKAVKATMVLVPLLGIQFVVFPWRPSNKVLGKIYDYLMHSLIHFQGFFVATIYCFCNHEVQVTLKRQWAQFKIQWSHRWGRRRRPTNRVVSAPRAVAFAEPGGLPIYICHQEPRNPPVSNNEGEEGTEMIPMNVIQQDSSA
Summary of the method: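 Affinity given as IC50 from a one-site competition fit of bound radioactivity, counted by scintillation after cold HBSS washes and NaOH/SDS lysis. Membranes came from BHK tk'ts 13 cells transiently expressing the rat receptor; other conditions followed the human calcitonin receptor protocol.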

[1] = molecular target: T2, rat amylin receptor (rat calcitonin receptor + rat RAMP 3) (Rattus norvegicus, UniProt P32214+Q9JJ73); assay: Assay (VI) binding to the rat amylin receptor (membrane); details: membranes; read-out: rAmylin-R binding IC50
T2 construct: expressed in transfected cells; host or cells: BHK tk'ts 13 (transient, FuGENE 6)
T2 sequence (P32214 25-479 isoform P32214-2 limits assumed): T1 sequence (P32214 25-479 isoform P32214-2 limits assumed)
T2 sequence (Q9JJ73 23-147 partner): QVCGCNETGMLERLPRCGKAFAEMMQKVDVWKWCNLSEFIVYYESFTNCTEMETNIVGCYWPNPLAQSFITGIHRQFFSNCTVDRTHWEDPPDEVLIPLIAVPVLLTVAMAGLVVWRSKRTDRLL
Protocol: The assay was performed as described above (Assay (V)—Determination of binding to the human amylin receptor) with the exception that we used membranes prepared from BHK tk'ts 13 cells that were transiently transfected with the rat calcitonin receptor rat RAMP 3 at an equimolar ratio […]. The BHK tk'ts 13 cells were transiently transfected with rat calcitonin receptor using FuGENE® 6 (Roche), according to the manufacturer's recommendations. Cells were grown in DMEM with 10% FBS and 1% Pen/Strep. Approximately 48 hours after transfection, the cells were harvested and membranes were prepared.

[2] = molecular target: T3, human calcitonin (a) receptor, BHK570 cells (Homo sapiens, UniProt P30988); assay: Assay (II)a functional CRE-luciferase assay with albumin, human calcitonin receptor; assay type: cell-based; details: Tested with HSA; read-out: hCTR funct. EC50
T3 construct: host or cells: BHK570
T3 sequence (P30988 25-474): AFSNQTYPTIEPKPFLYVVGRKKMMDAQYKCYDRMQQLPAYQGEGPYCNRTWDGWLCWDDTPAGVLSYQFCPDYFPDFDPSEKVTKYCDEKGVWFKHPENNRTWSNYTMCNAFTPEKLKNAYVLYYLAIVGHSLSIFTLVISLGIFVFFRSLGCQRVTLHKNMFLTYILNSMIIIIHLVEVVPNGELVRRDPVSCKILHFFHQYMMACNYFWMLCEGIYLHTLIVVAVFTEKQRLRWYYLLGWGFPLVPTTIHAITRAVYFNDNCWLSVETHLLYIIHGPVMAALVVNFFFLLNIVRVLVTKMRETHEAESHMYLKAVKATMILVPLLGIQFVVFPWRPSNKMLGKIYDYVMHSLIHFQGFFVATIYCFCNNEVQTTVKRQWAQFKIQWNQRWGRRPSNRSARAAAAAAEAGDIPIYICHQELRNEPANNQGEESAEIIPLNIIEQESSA
Summary of the method: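 BHK570 cells stably carry a CRE-luciferase reporter and the calcitonin receptor; co-transfected RAMP-3 gives the amylin 3(a) receptor line. Cells were treated for 3 h at 37 °C in DMEM with 10% FBS and 10 mM Hepes, pH 7.4. cAMP-driven luciferase was read by LucLite luminescence after 30 min at RT.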

[3] = Assay (IV) determination of solubility; assay type: physicochemical
Protocol: Assay (IV)—Determination of Solubility
The mimylin peptide was dissolved in water at ˜500 nmol/ml and mixed 1:1 with a series of buffers (100 mM glycylglycine pH 3.0, 100 mM glycylglycine pH 4.0, 100 mM glycylglycine pH 5.0, 100 mM bistrispropane pH 6.0, 100 mM bistrispropane pH 6.5, 100 mM bistrispropane pH 7.0, 100 mM bistrispropane pH 7.5, 100 mM bistrispropane pH 8.0).

IC50 (rat calcitonin receptor): 0.021 nM
IC50 [1]: 0.146 nM
EC50 [2]: 0.097 nM
solubility at 18 h ([3]; bistrispropane buffer, pH 6.5): ≥ 200 µM
solubility at 18 h ([3]; bistrispropane buffer, pH 7.5): ≥ 200 µM
solubility at 18 h ([3]; bistrispropane buffer, pH 6.0): ≥ 200 µM
solubility at 18 h ([3]; bistrispropane buffer, pH 7.0): ≥ 200 µM
solubility at 18 h ([3]; bistrispropane buffer, pH 8.0): ≥ 200 µM
solubility at 18 h ([3]; glycylglycine buffer, pH 3.0): ≥ 200 µM
solubility at 18 h ([3]; glycylglycine buffer, pH 4.0): 65 µM (≈ 257 µg/mL)
solubility at 18 h ([3]; glycylglycine buffer, pH 5.0): 7 µM (≈ 27.6 µg/mL)
Structure (SMILES): CC(C)C[C@H](NC(=O)[C@H](CCCNC(=N)N)NC(=O)CNC(=O)[C@H](CC(C)C)NC(=O)[C@@H](NC(=O)[C@H](C)NC(=O)[C@@H](NC(=O)[C@H](CO)NC(=O)[C@H](CC(C)C)NC(=O)[C@H](CCC(=O)O)NC(=O)[C@H](CO)NC(=O)[C@H](C)NC(=O)CC[C@H](NC(=O)CCCCCCCCCCCCCCCCCCC(=O)O)C(=O)O)[C@@H](C)O)C(C)C)C(=O)N[C@@H](CO)C(=O)N[C@@H](CCC(N)=O)C(=O)N[C@@H](CCC(=O)O)C(=O)N[C@@H](CC(C)C)C(=O)N[C@@H](Cc1c[nH]cn1)C(=O)N[C@@H](CCC(=O)O)C(=O)N[C@@H](CC(C)C)C(=O)N[C@@H](CCC(N)=O)C(=O)N[C@H](C(=O)N[C@@H](Cc1ccc(O)cc1)C(=O)N1CCC[C@H]1C(=O)N[C@@H](CCCNC(=N)N)C(=O)N[C@H](C(=O)N[C@@H](CCC(=O)O)C(=O)N[C@H](C(=O)NCC(=O)N[C@@H](CO)C(=O)NCC(=O)N[C@H](C(=O)N[C@@H](Cc1ccc(O)cc1)C(N)=O)[C@@H](C)O)[C@@H](C)O)[C@@H](C)O)[C@@H](C)O [compound 114, [N-terminal(C20 diacid-gGlu), des1, 9V, 15Q, 21Q, 23Y, 30S, 31G, 32T, 33Y]mimylin]

From patent US9593149B2, “Amylin and calcitonin receptor agonist” (Novo Nordisk A/S, priority 2014, dated 2017)
